Measured values published in PubChem BioAssay (NCI).
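Interpolation was linear, between the two tested concentrations surrounding the appropriate level; five concentrations were tested over 48 hours in 96-well plates. At the GI50, growth is halved. TGI marks complete inhibition of growth.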

Key:
Assay in all cases: DTP human tumour cell line panel, 48 h
IGROV1 ovarian = tested on: IGROV1 ovarian
DMS 114 small cell lung = tested on: DMS 114 small cell lung
SW-620 colon = tested on: SW-620 colon
SR leukemia = tested on: SR leukemia
SK-MEL-5 melanoma = tested on: SK-MEL-5 melanoma
RXF 393 renal = tested on: RXF 393 renal
SNB-78 CNS = tested on: SNB-78 CNS
K-562 leukemia = tested on: K-562 leukemia
SK-MEL-28 melanoma = tested on: SK-MEL-28 melanoma
SK-OV-3 ovarian = tested on: SK-OV-3 ovarian

Structure (SMILES)	TGI (IGROV1 ovarian) [µM]	TGI (DMS 114 small cell lung) [µM]	TGI (SW-620 colon) [µM]	TGI (SR leukemia) [µM]	TGI (SK-MEL-5 melanoma) [µM]	TGI (RXF 393 renal) [µM]	TGI (SNB-78 CNS) [µM]	TGI (K-562 leukemia) [µM]	TGI (SK-MEL-28 melanoma) [µM]	GI50 (IGROV1 ovarian) [µM]	GI50 (SW-620 colon) [µM]	GI50 (SR leukemia) [µM]	GI50 (SK-MEL-5 melanoma) [µM]	GI50 (RXF 393 renal) [µM]	GI50 (K-562 leukemia) [µM]	GI50 (SK-MEL-28 melanoma) [µM]	GI50 (SK-OV-3 ovarian) [µM]	TGI (SK-OV-3 ovarian) [µM]
CC(C)(C)N=CN(C=C(c1ccccc1)c1ccccc1)C1CCCCC1	> 100	55.3	> 100	51	31.8	79.2	> 100	39.9	> 100									
CC1(C)N=C(N)N=C(N)N1c1ccc(Cl)c(Cl)c1	> 100		> 100	> 100	> 100	> 100		> 100	> 100	0.356	0.0966	31.3	0.547	29.1	0.0636	11.7	0.83	> 100
COc1cc(C2C3=C(COC3=O)Nc3cc4c(cc32)OCO4)cc2c1OCO2 (configuration not stated)	> 100		> 100	> 100	0.374	> 100		> 100	> 100	0.127	0.0651	0.0479	0.101	0.0304	0.034		0.0706	
COc1ccc(Oc2cc(NCCC(F)(F)F)c3ncc(-c4ccc(C(=O)NC5CC5)c(C)c4)n3n2)c(F)c1F	> 68.3		> 100	64.3	> 100	31.9		> 100	59.1	0.484	0.125	0.224	4.75	0.425	10.2	4.94	0.399	27.2
Cc1cnc(SCCN2CCN(C)CC2)nc1-c1cc2ccccc2s1		20.5	24.7	8.46	14.6	22.7	32.5		32.7									13.8
Cc1cc2c(cc1C)[n+](Cc1ccc3ccccc3n1)cn2Cc1ccc2ccccc2n1	2.21		2.92	3.21	1.59	2.45		3	2.47	0.57	1.07	1.12	0.471	1.17	0.527	0.992	1.69	4.13
O=C1CCC2(c3ccccc3)Nc3ccc(Cl)cc3N12 (configuration not stated)	> 100	> 100	> 100		> 100	> 100	> 100	> 100	> 100									> 100
Oc1c2c(c(O)c3ccccc13)C1(N=N2)c2ccccc2Oc2ccccc21	10.2		18.1	> 100	27.2	4.65		> 100	28.8									31.4
CN(C)c1ccc(C(=C2C=CC(=[N+](C)C)C=C2)c2ccccc2Cl)cc1	1.34		1.19	0.898	1.05	1.61		3.79	1.44	0.365	0.288	0.235	0.301	0.405	0.244	0.4	0.314	0.992
